Test results taken from ChEMBL document CHEMBL4715844, “Structure-based virtual screening and biological evaluation of novel non-bisphosphonate farnesyl pyrophosphate synthase inhibitors” (Eur J Med Chem, 2020).
The source made the active and inactive calls. No cut-off for these calls is given here.

Key:
[1] = target: T1, Farnesyl pyrophosphate synthase (Rattus norvegicus, UniProt P05369); assay: Binding affinity to rat FPPS expressed in Escherichia coli BL21 (DE3) by isothermal titration calorimetry
T1 sequence (P05369 whole entry): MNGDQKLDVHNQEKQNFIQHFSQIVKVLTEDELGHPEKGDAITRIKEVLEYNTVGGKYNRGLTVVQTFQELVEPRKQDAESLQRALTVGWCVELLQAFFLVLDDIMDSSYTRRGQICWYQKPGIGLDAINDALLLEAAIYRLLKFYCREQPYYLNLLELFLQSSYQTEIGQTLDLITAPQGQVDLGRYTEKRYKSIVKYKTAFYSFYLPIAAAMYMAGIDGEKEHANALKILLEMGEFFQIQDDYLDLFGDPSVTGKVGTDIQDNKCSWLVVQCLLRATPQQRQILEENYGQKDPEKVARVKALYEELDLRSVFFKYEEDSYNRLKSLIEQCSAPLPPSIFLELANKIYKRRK

[2] = target: T2, Farnesyl pyrophosphate synthase (Rattus norvegicus) (UniProt P05369); assay: Inhibition of rat FPPS expressed in Escherichia coli BL21 (DE3) using GPP and IPP as substrate at 10 uM incubated for 10 mins by microplate reader
T2 sequence (whole entry): T1 sequence (P05369 whole entry)

[3] = system: HCT-116; assay: Cytotoxicity against FPPS-positive human HCT116 cells assessed as cell viability at 100 uM in presence of FOH measured after 48 hrs by MTT assay; type: functional; settings: read-out: Activity
[4] = system: LoVo; assay: Cytotoxicity against FPPS-positive human Lovo cells assessed as cell viability at 100 uM in presence of FOH measured after 48 hrs by MTT assay; type: functional; settings: read-out: Activity
[5] = system: LoVo; assay: Induction of apoptosis in human Lovo cells assessed as late apoptotic cells at 50 uM after 48 hrs by Annexin V/FITC staining based flow cytometric analysis (reference value: 1.84%); type: functional
[6] = system: LoVo; assay: Induction of apoptosis in human Lovo cells assessed as early apoptotic cells at 25 uM after 48 hrs by Annexin V/FITC staining based flow cytometric analysis (reference value: 6.76%); type: functional
[7] = Reduction in Ras protein expression in FPPS-positive human HCT116 cells assessed as mean fluorescence intensity upto 75 uM measured after 48 hrs by Western blot analysis relative to untreated control; type: functional, HCT-116; settings: dose microM <=75
[8] = system: HCT-116; assay: Cytotoxicity against FPPS-positive human HCT116 cells assessed as cell viability in presence of GGOH measured after 48 hrs by MTT assay; type: functional, cell-based; settings: HCT-116, 48 h
[9] = system: HCT-116; assay: Cytotoxicity against FPPS-positive human HCT116 cells assessed as reduction in cell viability measured after 48 hrs by MTT assay; settings: HCT-116, 48 h
[10] = system: LoVo; assay: Induction of ROS generation in human Lovo cells assessed as intracellular ROS level at 25 uM by DCFH-DA staining-based flow cytometric analysis (reference value: 9.18%); type: functional
[11] = system: HCT-116; assay: Induction of apoptosis in human HCT116 cells assessed as viable cells at 75 uM after 48 hrs by Annexin V/FITC staining based flow cytometric analysis (reference value: 92%); type: functional; settings: read-out: Activity
[12] = system: HCT-116; assay: Cytotoxicity against FPPS-positive human HCT116 cells assessed as cell viability in presence of FOH measured after 48 hrs by MTT assay; type: functional, cell-based; settings: HCT-116, 48 h
[13] = system: HCT-116; assay: Induction of apoptosis in human HCT116 cells assessed as viable cells at 25 uM after 48 hrs by Annexin V/FITC staining based flow cytometric analysis (reference value: 92%); type: functional; settings: read-out: Activity
[14] = system: LoVo; assay: Induction of apoptosis in human Lovo cells assessed as viable cells at 25 uM after 48 hrs by Annexin V/FITC staining based flow cytometric analysis (reference value: 91.1%); type: functional; settings: read-out: Activity
[15] = system: LoVo; assay: Induction of apoptosis in human Lovo cells assessed as viable cells at 50 uM after 48 hrs by Annexin V/FITC staining based flow cytometric analysis (reference value: 91.1%); type: functional; settings: read-out: Activity
[16] = system: LoVo; assay: Cytotoxicity against FPPS-positive human Lovo cells assessed as cell viability in presence of GGOH measured after 48 hrs by MTT assay; type: functional, cell-based
[17] = system: HCT-116; assay: Induction of apoptosis in human HCT116 cells assessed as late apoptotic cells at 50 uM after 48 hrs by Annexin V/FITC staining based flow cytometric analysis (reference value: 5.63%); type: functional
[18] = system: LoVo; assay: Induction of apoptosis in human Lovo cells assessed as necrotic cells at 50 uM after 48 hrs by Annexin V/FITC staining based flow cytometric analysis (reference value: 0.321%); type: functional
[19] = system: HCT-116; assay: Growth inhibition of human HCT116 cells at 100 uM incubated for 48 hrs by MTT assay relative to control; type: functional; settings: read-out: GI
[20] = system: HCT-116; assay: Induction of apoptosis in human HCT116 cells assessed as necrotic cells at 50 uM after 48 hrs by Annexin V/FITC staining based flow cytometric analysis (reference value: 1.12%); type: functional
[21] = system: MDA-MB-231; assay: Cytotoxicity against FPPS-negative human MDA-MB-231 cells assessed as reduction in cell viability measured after 48 hrs by MTT assay; type: functional, cell-based; settings: MDA-MB-231, 48 h
[22] = system: LoVo; assay: Induction of ROS generation in human Lovo cells assessed as intracellular ROS level at […] 50 by DCFH-DA staining-based flow cytometric analysis (reference value: 9.18%); type: functional; settings: dose 50 µM
[23] = system: HCT-116; assay: Induction of apoptosis in human HCT116 cells assessed as necrotic cells at 75 uM after 48 hrs by Annexin V/FITC staining based flow cytometric analysis (reference value: 1.12%); type: functional
[24] = Reduction in Ras protein expression in FPPS-positive human LoVo cells assessed as mean fluorescence intensity upto 75 uM measured after 48 hrs by Western blot analysis relative to untreated control; type: functional; settings: dose microM <=75
[25] = system: HCT-116; assay: Reduction in Ras protein expression in FPPS-positive human HCT116 cells upto 75 uM measured after 48 hrs by Western blot analysis; type: functional, cell-based; settings: dose microM <=75, time 48.0 hrs
[26] = system: LoVo; assay: Induction of apoptosis in human Lovo cells assessed as viable cells at 75 uM after 48 hrs by Annexin V/FITC staining based flow cytometric analysis (reference value: 91.1%); type: functional; settings: read-out: Activity
[27] = system: LoVo; assay: Induction of apoptosis in human Lovo cells assessed as late apoptotic cells at 75 uM after 48 hrs by Annexin V/FITC staining based flow cytometric analysis (reference value: 1.84%); type: functional
[28] = system: HCT-116; assay: Induction of apoptosis in human HCT116 cells assessed as early apoptotic cells at 50 uM after 48 hrs by Annexin V/FITC staining based flow cytometric analysis (reference value: 1.26%); type: functional
[29] = system: LoVo; assay: Cytotoxicity against FPPS-positive human Lovo cells assessed as cell viability in presence of FOH measured after 48 hrs by MTT assay; type: functional, cell-based
[30] = system: HCT-116; assay: Induction of ROS generation in human HCT116 cells assessed as intracellular ROS level at 25 uM by DCFH-DA staining-based flow cytometric analysis (reference value: 8.91%); type: functional
[31] = system: MDA-MB-468; assay: Growth inhibition of human MDA-MB-468 cells at 100 uM incubated for 48 hrs by MTT assay relative to control; settings: MDA-MB-468, 48 h, read-out: GI
[32] = system: LoVo; assay: Induction of apoptosis in human Lovo cells assessed as early apoptotic cells at 50 uM after 48 hrs by Annexin V/FITC staining based flow cytometric analysis (reference value: 6.76%); type: functional
[33] = system: LoVo; assay: Induction of ROS generation in human Lovo cells assessed as intracellular ROS level at 75 uM by DCFH-DA staining-based flow cytometric analysis (reference value: 9.18%); type: functional
[34] = system: HCT-116; assay: Induction of apoptosis in human HCT116 cells assessed as early apoptotic cells at 25 uM after 48 hrs by Annexin V/FITC staining based flow cytometric analysis (reference value: 1.26%); type: functional
[35] = system: LoVo; assay: Induction of apoptosis in human Lovo cells assessed as necrotic cells at 75 uM after 48 hrs by Annexin V/FITC staining based flow cytometric analysis (reference value: 0.321%); type: functional
[36] = system: HCT-116; assay: Induction of apoptosis in human HCT116 cells assessed as late apoptotic cells at 25 uM after 48 hrs by Annexin V/FITC staining based flow cytometric analysis (reference value: 5.63%); type: functional
[37] = system: LoVo; assay: Cytotoxicity against FPPS-positive human Lovo cells assessed as reduction in cell viability measured after 48 hrs by MTT assay
[38] = system: LoVo; assay: Reduction in Ras protein expression in FPPS-positive human LoVo cells upto 75 uM measured after 48 hrs by Western blot analysis; type: functional; settings: dose microM <=75, time 48.0 hrs
[39] = system: HCT-116; assay: Induction of apoptosis in human HCT116 cells assessed as viable cells at 50 uM after 48 hrs by Annexin V/FITC staining based flow cytometric analysis (reference value: 92%); type: functional; settings: read-out: Activity
[40] = system: HCT-116; assay: Induction of apoptosis in human HCT116 cells assessed as early apoptotic cells at 75 uM after 48 hrs by Annexin V/FITC staining based flow cytometric analysis (reference value: 1.26%); type: functional
[41] = system: HCT-116; assay: Induction of ROS generation in human HCT116 cells assessed as intracellular ROS level at 50 uM by DCFH-DA staining-based flow cytometric analysis (reference value: 8.91%); type: functional
[42] = system: HCT-116; assay: Induction of apoptosis in human HCT116 cells assessed as necrotic cells at 25 uM after 48 hrs by Annexin V/FITC staining based flow cytometric analysis (reference value: 1.12%); type: functional
[43] = system: LoVo; assay: Growth inhibition of human LoVo cells at 100 uM incubated for 48 hrs by MTT assay relative to control; type: functional; settings: read-out: GI
[44] = system: LoVo; assay: Cytotoxicity against FPPS-positive human Lovo cells assessed as cell viability at 100 uM in presence of GGOH measured after 48 hrs by MTT assay; type: functional; settings: read-out: Activity
[45] = system: HCT-116; assay: Induction of apoptosis in human HCT116 cells assessed as late apoptotic cells at 75 uM after 48 hrs by Annexin V/FITC staining based flow cytometric analysis (reference value: 5.63%); type: functional
[46] = system: LoVo; assay: Induction of apoptosis in human Lovo cells assessed as early apoptotic cells at 75 uM after 48 hrs by Annexin V/FITC staining based flow cytometric analysis (reference value: 6.76%); type: functional
[47] = system: HCT-116; assay: Induction of ROS generation in human HCT116 cells assessed as intracellular ROS level at 75 uM by DCFH-DA staining-based flow cytometric analysis (reference value: 8.91%); type: functional
[48] = system: LoVo; assay: Induction of apoptosis in human Lovo cells assessed as necrotic cells at 25 uM after 48 hrs by Annexin V/FITC staining based flow cytometric analysis (reference value: 0.321%); type: functional
[49] = system: HCT-116; assay: Cytotoxicity against FPPS-positive human HCT116 cells assessed as cell viability at 100 uM in presence of GGOH measured after 48 hrs by MTT assay; type: functional; settings: read-out: Activity
[50] = system: LoVo; assay: Induction of apoptosis in human Lovo cells assessed as late apoptotic cells at 25 uM after 48 hrs by Annexin V/FITC staining based flow cytometric analysis (reference value: 1.84%); type: functional

Compound: CCC(C)c1ccc(O[C@@H]2O[C@H](CO)[C@@H](O)[C@H](O)[C@H]2NC(C)=O)cc1 (some centres undefined)
- Kd [1]: 499 µM
- inhibition [2]: 25.3%

Compound: O=Cc1ccc(O[C@@H]2O[C@H](CO)[C@@H](O)[C@H](O)[C@H]2O)cc1
- Kd [1]: 328 µM
- inhibition [2]: 29.3%

Compound: COc1ccccc1CN(CCS(=O)(=O)N1CCNCC1)S(=O)(=O)c1ccc(C)cc1
- viability at 100 µM [3]: 28.5%
- viability at 100 µM [4]: 19%
- Activity [5]: 21.2%
- Activity [6]: 17.8%
- fold change (FC) [7]: 6.82
- IC50 [8]: 73.9 µM
- IC50 [9]: 51.8 µM
- Activity [10]: 19.6%
- viability at 75 µM [11]: 49.9%
- IC50 [12]: 81.1 µM
- viability at 25 µM [13]: 80.9%
- viability at 25 µM [14]: 75.9%
- viability at 50 µM [15]: 52.3%
- IC50 [16]: 51 µM
- Activity [17]: 14.6%
- Activity [18]: 1.84%
- Kd [1]: 14.3 µM
- inhibition of growth at 100 µM [19]: 80%
- Activity [20]: 1.28%
- IC50 [21]: > 100 µM
- Activity [22]: 48%
- Activity [23]: 3.86%
- fold change (FC) [24]: 8.13
- inhibition [25]: Active
- viability at 75 µM [26]: 38.1%
- Activity [27]: 26.5%
- Activity [28]: 16.6%
- IC50 [29]: 55.6 µM
- Activity [30]: 18.7%
- inhibition of growth at 100 µM [31]: 80%
- Activity [32]: 24.6%
- Activity [33]: 74.6%
- Activity [34]: 11.99%
- Activity [35]: 2.71%
- Activity [36]: 5.2%
- IC50 [37]: 43.6 µM
- inhibition [38]: Active
- viability at 50 µM [39]: 67.5%
- Activity [40]: 25.8%
- Activity [41]: 30.9%
- Activity [42]: 1.98%
- inhibition of growth at 100 µM [43]: 80%
- viability at 100 µM [44]: 14.8%
- Activity [45]: 20.4%
- inhibition [2]: 24%
- Activity [46]: 32.7%
- Activity [47]: 60.8%
- Activity [48]: 2.04%
- viability at 100 µM [49]: 27.9%
- Activity [50]: 4.29%
